Results taken from patent US12570613B2, “Imidazoquinoline or benzoindazolone compound and intermediate for preparing same” (LMITO THERAPEUTICS INC., priority 2020, dated 2026).

Target: NQO1 protein (Homo sapiens, UniProt P15559)
Assay: In vitro NQO1 enzyme activity assay (cytochrome C reduction, absorbance at 550 nm)
Format: biochemical
Details: NQO1 2 ng
Description: In order to evaluate the activity of the synthesized compound in NQO1, the experiments were performed as follows:
The synthesized compound was dissolved in DMSO to make a 10 mM stock solution, which was further diluted with DMSO to 250 μM so as to prepare a working solution. For experimental groups, the working solution of the compound was added to an enzyme reaction solution in which 50 μL of 1.54 mM Cytochrome C solution was added to 900 μL of 50 mM Tris-HCl (pH7.5) containing 0.14% BSA. For negative control groups, DMSO not containing the compound of the invention was added to the enzyme reaction solution as above. For each experimental and control group, 20 μL of 100 ng/mL NQO1 protein was added, and then 10 μL of 20 mM NADH was added to bring up the total volume to 1 mL. The change of absorbance was measured at 550 nm for 10 minutes using 1 mL cuvette. The kinetics of reaction was measured by the increase of absorbance as the cytochrome C was reduced at 550 nm over 10 minutes. The activity of NQO1 was measured by the amount of cytochrome C that is being reduced (nmol cytochrome C that was reduced/min/ug NQO1 protein). • Absorption coefficient of Cytochrome C: 21.1 (μmol/mL)^−1cm^−1 • BSA: Bovine Serum Albumin • […]: Tris(hydroxymethyl)aminomethane hydrochloride (buffer solution) • Equipment=Cary 100 UV-Vis Spectrophotometer • The results are shown in Tables 1 to 8.

Chain of NQO1 protein (P15559 whole entry, species assumed): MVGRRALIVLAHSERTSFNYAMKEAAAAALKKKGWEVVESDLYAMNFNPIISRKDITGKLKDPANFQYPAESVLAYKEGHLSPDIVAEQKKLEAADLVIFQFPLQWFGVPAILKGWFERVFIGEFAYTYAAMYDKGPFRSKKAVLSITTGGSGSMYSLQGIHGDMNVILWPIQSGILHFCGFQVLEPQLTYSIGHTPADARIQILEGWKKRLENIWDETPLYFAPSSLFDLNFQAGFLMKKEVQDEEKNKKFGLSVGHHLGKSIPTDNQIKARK

SMILES: Cc1nn(-c2ccc(F)cc2)c2c1C(=O)C(=O)c1ccccc1-2 [Compound 25, 1-(4-Fluorophenyl)-3-methyl-1H-benzo[g]indazol-4,5-dione]
- NQO1 activity assay Cytochrome C reduced/min/μg NQO1 protein (10 nM Compound (Table 1)): 463 nmol cytochrome C that was reduced/min/ug NQO1 protein

SMILES: Cc1nn(CCc2ccccc2)c2c1C(=O)C(=O)c1ccccc1-2 [Compound 64, 3-Methyl-1-phenethyl-1H-benzo[g]indazol-4,5-dione]
- NQO1 activity assay Cytochrome C reduced/min/μg NQO1 protein (50 nM Compound (Table 2)): 2081 nmol cytochrome C that was reduced/min/ug NQO1 protein

SMILES: Cc1c2c(nn1S(=O)(=O)c1cccc(Cl)c1)-c1ccccc1C(=O)C2=O [Compound 47, 2-(3-Chlorophenylsulfonyl)-3-methyl-2H-benzo[g]indazol-4,5-dione]
- NQO1 activity assay Cytochrome C reduced/min/μg NQO1 protein (50 nM Compound (Table 5)): 1277 nmol cytochrome C that was reduced/min/ug NQO1 protein

SMILES: Cc1nn(CCCc2ccccc2)c2c1C(=O)C(=O)c1ccccc1-2 [Compound 67, 3-Methyl-1-(3-phenylpropyl)-1H-benzo[g]indazol-4,5-dione]
- NQO1 activity assay Cytochrome C reduced/min/μg NQO1 protein (50 nM Compound (Table 8)): 1836 nmol cytochrome C that was reduced/min/ug NQO1 protein

SMILES: Cc1c2c(nn1S(=O)(=O)c1ccccc1Cl)-c1ccccc1C(=O)C2=O [Compound 46, 2-(2-Chlorophenylsulfonyl)-3-methyl-2H-benzo[g]indazol-4,5-dione]
- NQO1 activity assay Cytochrome C reduced/min/μg NQO1 protein (50 nM Compound (Table 5)): 1522 nmol cytochrome C that was reduced/min/ug NQO1 protein

SMILES: CN(C)Cc1nn(-c2ccccc2)c2c1C(=O)C(=O)c1ccccc1-2 [Compound 17, 3-((Dimethylamino)methyl)-1-phenyl-1H-benzo[g]indazol-4,5-dione]
- NQO1 activity assay Cytochrome C reduced/min/μg NQO1 protein (10 nM Compound (Table 1)): 254 nmol cytochrome C that was reduced/min/ug NQO1 protein

SMILES: CCCCCCCc1nn(-c2ccccc2)c2c1C(=O)C(=O)c1ccccc1-2 [Compound 11, 3-Heptyl-1-phenyl-1H-benzo[g]indazol-4,5-dione]
- NQO1 activity assay Cytochrome C reduced/min/μg NQO1 protein (10 nM Compound (Table 1)): 203 nmol cytochrome C that was reduced/min/ug NQO1 protein

SMILES: CC(C)c1nn(-c2ccccc2)c2c1C(=O)C(=O)c1ccccc1-2 [Compound 10, 3-Isopropyl-1-phenyl-1H-benzo[g]indazol-4,5-dione]
- NQO1 activity assay Cytochrome C reduced/min/μg NQO1 protein (10 nM Compound (Table 1)): 138 nmol cytochrome C that was reduced/min/ug NQO1 protein

SMILES: Cc1c2c(nn1S(=O)(=O)c1cccnc1)-c1ccccc1C(=O)C2=O [Compound 48, 3-Methyl-2-(pyridin-3-ylsulfonyl)-2H-benzo[g]indazol-4,5-dione]
- NQO1 activity assay Cytochrome C reduced/min/μg NQO1 protein (50 nM Compound (Table 5)): 1749 nmol cytochrome C that was reduced/min/ug NQO1 protein

SMILES: Cc1c2c(nn1S(=O)(=O)C1CCCC1)-c1ccccc1C(=O)C2=O [Compound 54, 2-(Cyclopentylsulfonyl)-3-methyl-2H-benzo[g]indazol-4,5-dione]
- NQO1 activity assay Cytochrome C reduced/min/μg NQO1 protein (50 nM Compound (Table 7)): 1295 nmol cytochrome C that was reduced/min/ug NQO1 protein

SMILES: Cc1ccc(S(=O)(=O)n2nc3c(c2C)C(=O)C(=O)c2ccccc2-3)cc1 [Compound 50, 3-Methyl-2-tosyl-2H-benzo[g]indazol-4,5-dione]
- NQO1 activity assay Cytochrome C reduced/min/μg NQO1 protein (50 nM Compound (Table 6)): 1542 nmol cytochrome C that was reduced/min/ug NQO1 protein

SMILES: O=C1C(=O)c2c(-c3ccc(F)cc3)nn(-c3ccccc3)c2-c2ccccc21 [Compound 14, 3-(4-Fluorophenyl)-1-phenyl-1H-benzo[g]indazol-4,5-dione]
- NQO1 activity assay Cytochrome C reduced/min/μg NQO1 protein (10 nM Compound (Table 1)): 156 nmol cytochrome C that was reduced/min/ug NQO1 protein

SMILES: Cc1nn(-c2ccc(Cl)cc2Cl)c2c1C(=O)C(=O)c1ccccc1-2 [Compound 28, 1-(2,4-Dichlorophenyl)-3-methyl-1H-benzo[g]indazol-4,5-dione]
- NQO1 activity assay Cytochrome C reduced/min/μg NQO1 protein (10 nM Compound (Table 1)): 745 nmol cytochrome C that was reduced/min/ug NQO1 protein

SMILES: O=C1C(=O)c2ncc(-c3ccc(F)cc3)n2-c2ccccc21 [Compound 2, 1-(4-Fluorophenyl)imidazo[1,2-a]quinolin-4,5-dione]
- NQO1 activity assay Cytochrome C reduced/min/μg NQO1 protein (10 nM Compound (Table 1)): 455 nmol cytochrome C that was reduced/min/ug NQO1 protein

SMILES: Cc1nn(-c2cncc(Cl)c2)c2c1C(=O)C(=O)c1ccccc1-2 [Compound 39, 1-(5-Chloropyridin-3-yl)-3-methyl-1H-benzo[g]indazol-4,5-dione]
- NQO1 activity assay Cytochrome C reduced/min/μg NQO1 protein (50 nM Compound (Table 4)): 3285 nmol cytochrome C that was reduced/min/ug NQO1 protein

SMILES: Cc1c2c(nn1S(=O)(=O)c1cccc3cccnc13)-c1ccccc1C(=O)C2=O [Compound 60, 3-Methyl-2-(quinolin-8-ylsulfonyl)-2H-benzo[g]indazol-4,5-dione]
- NQO1 activity assay Cytochrome C reduced/min/μg NQO1 protein (50 nM Compound (Table 8)): 2692 nmol cytochrome C that was reduced/min/ug NQO1 protein

SMILES: Cc1nn(-c2nccs2)c2c1C(=O)C(=O)c1ccccc1-2 [Compound 40, 3-Methyl-1-(thiazol-2-yl)-1H-benzo[g]indazol-4,5-dione]
- NQO1 activity assay Cytochrome C reduced/min/μg NQO1 protein (50 nM Compound (Table 3)): 2041 nmol cytochrome C that was reduced/min/ug NQO1 protein

SMILES: Cc1nn(-c2ccccc2)c2c1C(=O)C(=O)c1cc(F)ccc1-2 [Compound 35, 7-Fluoro-3-methyl-1-phenyl-1H-benzo[g]indazol-4,5-dione]
- NQO1 activity assay Cytochrome C reduced/min/μg NQO1 protein (10 nM Compound (Table 1)): 694 nmol cytochrome C that was reduced/min/ug NQO1 protein

SMILES: O=C1C(=O)c2c(CBr)nn(-c3ccccc3)c2-c2ccccc21 [Compound 16, 3-(Bromomethyl)-1-phenyl-1H-benzo[g]indazol-4,5-dione]
- NQO1 activity assay Cytochrome C reduced/min/μg NQO1 protein (10 nM Compound (Table 1)): 596 nmol cytochrome C that was reduced/min/ug NQO1 protein

SMILES: Cc1ccc(-n2nc(C)c3c2-c2ccccc2C(=O)C3=O)cc1 [Compound 29, 3-Methyl-1-p-tolyl-1H-benzo[g]indazol-4,5-dione]
- NQO1 activity assay Cytochrome C reduced/min/μg NQO1 protein (10 nM Compound (Table 1)): 668 nmol cytochrome C that was reduced/min/ug NQO1 protein

SMILES: Cc1n[nH]c2c1C(=O)C(=O)c1ccccc1-2 [Compound 43, 3-Methyl-1H-benzo[g]indazol-4,5-dione]
- NQO1 activity assay Cytochrome C reduced/min/μg NQO1 protein (50 nM Compound (Table 2)): 1008 nmol cytochrome C that was reduced/min/ug NQO1 protein

SMILES: Cc1nn(C(C)C)c2c1C(=O)C(=O)c1ccccc1-2 [Compound 20, 1-Isopropyl-3-methyl-1H-benzo[g]indazol-4,5-dione]
- NQO1 activity assay Cytochrome C reduced/min/μg NQO1 protein (10 nM Compound (Table 1)): 918 nmol cytochrome C that was reduced/min/ug NQO1 protein
